Source: PubChem BioAssay (NCI)
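1) Cells in 96-well plates. 2) Compound, 48 h, 5 concentrations. 3) Linear interpolation between surrounding doses. 4) Unreached endpoint = highest concentration. At the GI50, growth is halved. TGI: total growth inhibition.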

How the values were obtained:
Assay in all cases: NCI tumour cell line growth inhibition, 48 h
[1] = system: HOP-62 NSCLC
[2] = system: A498 renal
[3] = system: RPMI-8226 leukemia
[4] = system: HT29 colon
[5] = system: SNB-19 CNS
[6] = system: NCI-H226 lung
[7] = system: COLO 205 colon
[8] = system: SF-295 CNS
[9] = system: OVCAR-3 ovarian
[10] = system: SK-OV-3 ovarian
[11] = system: BT-549 breast
[12] = system: MDA-MB-435
[13] = system: SF-268 CNS
[14] = system: SF-539 CNS
[15] = system: NCI/ADR-RES ovarian
[16] = system: SR leukemia
[17] = system: ACHN renal
[18] = system: EKVX NSCLC
[19] = system: UO-31 renal
[20] = system: HCC-2998 colon
[21] = system: LOX IMVI melanoma
[22] = system: NCI-H23 lung
[23] = system: A549 NSCLC
[24] = system: OVCAR-5 ovarian
[25] = system: MALME-3M melanoma
[26] = system: KM12 colon
[27] = system: NCI-H460 lung
[28] = system: HCT-15 colon
[29] = system: HS 578T breast
[30] = system: U251 CNS
[31] = system: UACC-257 melanoma
[32] = system: HL-60(TB) leukemia
[33] = system: SK-MEL-28 melanoma
[34] = system: RXF 393 renal
[35] = system: SN12C renal
[36] = system: DU-145 prostate
[37] = system: MOLT-4 leukemia
[38] = system: OVCAR-8 ovarian
[39] = system: CAKI-1 renal
[40] = system: NCI-H522 lung
[41] = system: OVCAR-4 ovarian
[42] = system: MCF7 breast
[43] = system: UACC-62 melanoma
[44] = system: PC-3 prostate
[45] = system: 786-0 renal
[46] = system: MDA-MB-231 breast
[47] = system: HCT-116 colon
[48] = system: HOP-92 NSCLC
[49] = system: TK-10 renal
[50] = system: SNB-75 CNS
[51] = system: SK-MEL-5 melanoma
[52] = system: SW-620 colon
[53] = system: K-562 leukemia
[54] = system: T-47D breast
[55] = system: IGROV1 ovarian
[56] = system: SK-MEL-2 melanoma
[57] = system: CCRF-CEM leukemia
[58] = system: M14 melanoma

Molecule `OC[C@H]1C[C@](O)(c2ccc(Cl)cc2)[C@@H](c2ccc(Cl)cc2)O1` has a GI50 [1] of 20.9 µM, a TGI [1] of 51.8 µM and a GI50 [2] of 24.6 µM. It also gave a TGI [2] of 57.3 µM, a GI50 [3] of 13.7 µM and a TGI [3] of 34.9 µM. It also gave a GI50 [4] of 23.7 µM, a TGI [4] of 50.1 µM and a GI50 [5] of 37.8 µM. For the same molecule, the TGI [5] was > 100 µM, the GI50 [6] was 26.4 µM and the TGI [6] was 72.8 µM. The GI50 [7] was 25.6 µM, the TGI [7] was 51.8 µM and the GI50 [8] was 30.1 µM. The TGI [8] was 84.8 µM, the GI50 [9] was 26.2 µM and the TGI [9] was 58.9 µM. For the same molecule, the GI50 [10] was 39.4 µM, the TGI [10] was > 100 µM and the GI50 [11] was 16.8 µM. The TGI [11] was 34.6 µM, the GI50 [12] was 22.9 µM and the TGI [12] was 47.8 µM. For the same molecule, the GI50 [13] was 26.8 µM, the TGI [13] was > 100 µM and the GI50 [14] was 23.3 µM. The TGI [14] was 53.8 µM, the GI50 [15] was 30.3 µM and the TGI [15] was 87.5 µM. For the same molecule, the GI50 [16] was 0.202 µM, the TGI [16] was 16.8 µM and the GI50 [17] was 28 µM. For the same molecule, the TGI [17] was 97.3 µM, the GI50 [18] was 18.2 µM and the TGI [18] was 48.2 µM. The GI50 [19] was 19.4 µM, the TGI [19] was 50.3 µM and the GI50 [20] was 23.8 µM. The TGI [20] was 52.9 µM, the GI50 [21] was 17.9 µM and the TGI [21] was 34.8 µM. It also gave a GI50 [22] of 24.8 µM, a TGI [22] of 58.2 µM and a GI50 [23] of 29.6 µM. For the same molecule, the TGI [23] was 78.7 µM, the GI50 [24] was 25.9 µM and the TGI [24] was 71.7 µM. It also gave a GI50 [25] of 21.5 µM, a TGI [25] of 45.4 µM and a GI50 [26] of 20.6 µM. For the same molecule, the TGI [26] was 51 µM, the GI50 [27] was 20.2 µM and the TGI [27] was 48.7 µM. For the same molecule, the GI50 [28] was 31.7 µM, the TGI [28] was > 100 µM and the GI50 [29] was 18 µM. It also gave a TGI [29] of 45.6 µM, a GI50 [30] of 24.8 µM and a TGI [30] of 69.5 µM. It also gave a GI50 [31] of 21.2 µM, a TGI [31] of 44.7 µM and a GI50 [32] of 17.6 µM. For the same molecule, the TGI [32] was 49.2 µM, the GI50 [33] was 28.9 µM and the TGI [33] was 92.3 µM. The GI50 [34] was 20.8 µM, the TGI [34] was 39.7 µM and the GI50 [35] was 17 µM. For the same molecule, the TGI [35] was 35.8 µM, the GI50 [36] was 22.1 µM and the TGI [36] was 56.9 µM. For the same molecule, the GI50 [37] was 17.6 µM, the TGI [37] was 60.1 µM and the GI50 [38] was 31.2 µM. It also gave a TGI [38] of 91.7 µM, a GI50 [39] of 27 µM and a TGI [39] of 79.3 µM. It also gave a GI50 [40] of 26 µM, a TGI [40] of 52.9 µM and a GI50 [41] of 32 µM. For the same molecule, the TGI [41] was > 100 µM, the GI50 [42] was 30 µM and the TGI [42] was 72.8 µM. For the same molecule, the GI50 [43] was 16 µM, the TGI [43] was 31.6 µM and the GI50 [44] was 19.8 µM. The TGI [44] was 57.5 µM, the GI50 [45] was 22.4 µM and the TGI [45] was 55.9 µM. For the same molecule, the GI50 [46] was 19.6 µM, the TGI [46] was 46.9 µM and the GI50 [47] was 17.3 µM. It also gave a TGI [47] of 35.6 µM, a GI50 [48] of 16.8 µM and a TGI [48] of 45.6 µM. The GI50 [49] was 30.5 µM, the TGI [49] was 84.3 µM and the GI50 [50] was 22.9 µM. It also gave a TGI [50] of 87.7 µM, a GI50 [51] of 15.3 µM and a TGI [51] of 29.3 µM. For the same molecule, the GI50 [52] was 27.3 µM, the TGI [52] was > 100 µM and the GI50 [53] was 24.9 µM. It also gave a TGI [53] of 76.5 µM.

For `Cc1cc2c(cc1Cl)SC(NS(=O)(=O)c1ccc(Cl)cc1)=NS2(=O)=O`, the TGI [54] was > 100 µM, the TGI [1] was > 100 µM and the TGI [2] was > 100 µM. The TGI [3] was > 100 µM, the TGI [4] was > 100 µM and the TGI [5] was > 100 µM. The TGI [6] was > 100 µM, the TGI [7] was > 100 µM and the TGI [8] was 88.3 µM. The TGI [9] was > 100 µM, the TGI [10] was > 100 µM and the TGI [11] was > 100 µM. The TGI [12] was > 100 µM, the TGI [13] was > 100 µM and the TGI [14] was 73.9 µM. The TGI [55] was > 100 µM, the TGI [15] was > 100 µM and the TGI [16] was 30.4 µM. For the same molecule, the TGI [17] was > 100 µM, the TGI [18] was > 100 µM and the TGI [19] was > 100 µM. For the same molecule, the TGI [21] was > 100 µM, the TGI [22] was > 100 µM and the TGI [23] was > 100 µM. The TGI [24] was > 100 µM, the TGI [56] was > 100 µM and the TGI [26] was > 100 µM. The TGI [27] was > 100 µM, the TGI [57] was > 100 µM and the TGI [28] was > 100 µM. The TGI [29] was > 100 µM, the TGI [30] was > 100 µM and the TGI [31] was > 100 µM. The TGI [32] was > 100 µM, the TGI [33] was > 100 µM and the TGI [34] was 66.5 µM. The TGI [35] was > 100 µM, the TGI [36] was > 100 µM and the TGI [37] was 73 µM. The TGI [39] was > 100 µM, the TGI [40] was 84.2 µM and the TGI [41] was > 100 µM. For the same molecule, the TGI [42] was > 100 µM, the TGI [58] was > 100 µM and the TGI [43] was > 100 µM. For the same molecule, the TGI [45] was > 100 µM, the TGI [46] was > 100 µM and the TGI [47] was > 100 µM. For the same molecule, the TGI [48] was 39.5 µM, the TGI [49] was 69.5 µM and the TGI [50] was > 100 µM. The TGI [51] was > 100 µM, the TGI [52] was > 100 µM and the TGI [53] was > 100 µM.
